Reference: patent US8299074B2, “P38 MAP kinase inhibitors” (RespiVert Ltd., priority 2008, dated 2012)
Where two headings read alike, the source gives them in different places.

Experiments:
[1] = test system: Differentiated U937 cells; experiment: MTT assay (cell viability); assay type: cell-based, human
Summary of the method: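 Differentiated U937 cells pre-incubated with compound 4 h in 5% FCS or 24 h in 10% FCS; MTT read at 550 nm after DMSO solubilisation. Percentage loss of viability relative to 0.5% DMSO vehicle; apparent increases appear as negative percentages.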

p38 MAPK alpha (MAPK14) = molecular target: T1, p38 MAPK alpha (MAPK14) (Homo sapiens, UniProt Q16539); experiment: Enzyme inhibition assay, p38 MAPK alpha (FRET, Z-LYTE, via MAPKAP-K2); assay type: biochemical; details: read-out: Enzyme p38α IC50
T1 construct: purchased Invitrogen

U937 cells [2] = experiment: LPS-induced TNF alpha release in U937 cells; assay type: cell-based
Summary of the method: (§1)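 U937 cells differentiated with PMA (100 ng/ml) for 48 to 72 hours, pre-treated with compound for 2 hrs, then stimulated with E. coli O111:B4 LPS for 4 hrs. Supernatant TNFα and IL-8 measured by sandwich ELISA; inhibition at each concentration versus vehicle control.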

BEAS2B cells = experiment: Poly I:C-induced ICAM-1 induction in BEAS2B cells; assay type: cell-based; details: Homo sapiens, BEAS-2B, read-out: BEAS2B (polyIC) ICAM1 IC50
Summary of the method: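 Poly I:C (1 ug/ml) transfected into BEAS2B cells after 2 h compound pre-incubation. Surface ICAM-1 measured by cell-based ELISA 18 h post-transfection (HRP, OD450–655), corrected for cell number by OD595.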

THP-1 cells = experiment: LPS-induced TNF alpha release in THP-1 cells; assay type: cell-based; details: Homo sapiens
Description: LPS-Induced TNF Alpha Release in THP-1 Cells: Potency […] Coli; O111:B4, Sigma) for 4 hr and the supernatant collected for determination of TNFα concentration by sandwich ELISA (Duo-set, R&D systems). The inhibition of TNFα production was calculated at each concentration by comparison with vehicle control.

U937 cells [3] = experiment: LPS-induced IL-8 release in U937 cells; assay type: cell-based; details: Homo sapiens, read-out: DU937 (LPS) IL-8 IC50
Summary of the method: as §1

[4] = Table 2, loss of cell viability at 1 μg/ml
[5] = Homo sapiens; read-out: DU937 (LPS) TNFα REC50
[6] = THP-1, Table 2, read-out: THP-1 (LPS) TNFα IC50
[7] = Table 2, loss of cell viability, test conducted at 10 μg/ml
[8] = Table 3, first MTT column, loss of cell viability at 1 μg/ml
[9] = Table 3, second MTT column, loss of cell viability at 1 μg/ml
[10] = THP-1, Table 3, read-out: THP-1 (LPS) TNFα IC50
[11] = Table 1, MTT, loss of cell viability at 1 μg/ml
[12] = Table 1, first MTT column, loss of cell viability at 1 μg/ml
[13] = THP-1, Table 1, read-out: THP-1 (LPS) TNFα IC50

T1 sequence (Q16539 whole entry): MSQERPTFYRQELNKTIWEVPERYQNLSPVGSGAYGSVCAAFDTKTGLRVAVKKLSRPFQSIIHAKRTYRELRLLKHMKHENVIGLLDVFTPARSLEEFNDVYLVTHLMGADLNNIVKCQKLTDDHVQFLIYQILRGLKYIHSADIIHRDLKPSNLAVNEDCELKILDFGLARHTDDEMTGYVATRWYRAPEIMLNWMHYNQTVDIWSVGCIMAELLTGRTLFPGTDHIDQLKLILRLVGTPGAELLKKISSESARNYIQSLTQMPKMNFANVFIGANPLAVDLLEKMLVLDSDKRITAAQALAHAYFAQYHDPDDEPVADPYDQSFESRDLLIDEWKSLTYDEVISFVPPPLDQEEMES

SMILES	IC50 (p38 MAPK alpha (MAPK14); Table 2)	EC50 (U937 cells [2]; [5])	IC50 (p38 MAPK alpha (MAPK14); Table 3)	IC50 (THP-1 cells; [10])	IC50 (U937 cells [3]; Table 3)	DU937 (cell viability) MTT assay 4 h [1, 8]	DU937 (cell viability) MTT assay 4 h [1, 9]	IC50 (BEAS2B cells; Table 3)	also measured
Cc1ccc(-n2nc(C(C)(C)C)cc2NC(=O)Nc2ccc(Oc3ccnc(NC(=O)CNC(=O)c4ccncc4)c3)c3ccccc23)cc1 [Example 17, N-(2-(4-(4-(3-(3-tert-Butyl-1-p-tolyl-1H-pyrazol-5-yl)ureido)naphthalen-1-yloxy)pyridin-2-ylamino)-2-oxoethyl)isonicotinamide]	< 10 nM	–	–	–	–	–	–	–	DU937 (cell viability) MTT assay 4 h [1, 4]: − (<=30%); DU937 (cell viability) MTT assay 24 h [1, 4]: + (>30%); EC50 (U937 cells [2]; Homo sapiens, read-out: DU937 (LPS) TNFα REC50): < 10 nM; IC50 (BEAS2B cells): < 10 nM; IC50 (THP-1 cells; THP-1, read-out: THP-1 (LPS) TNFα IC50): < 10 nM; IC50 (U937 cells [3]): < 10 nM
COCCNC(=O)CNC(=O)Nc1cc(Oc2ccc(NC(=O)Nc3cc(C(C)(C)C)nn3-c3ccc(C)cc3)c3ccccc23)ccn1 [Example 62]	–	< 10 nM	< 10 nM	< 10 nM	< 10 nM	− (<=30%)	− (<=30%)	< 10 nM	–
Cc1ccc(-n2nc(C(C)(C)C)cc2NC(=O)Nc2ccc(Oc3ccnc(NC(=O)N4CCCC4)c3)c3ccccc23)cc1 [Example 55, N-(4-(4-(3-(3-tert-Butyl-1-p-tolyl-1H-pyrazol-5-yl)ureido)naphthalen-1-yloxy)pyridin-2-yl)pyrrolidine-1-carboxamide]	–	< 10 nM	< 10 nM	< 10 nM	< 10 nM	− (<=30%)	− (<=30%)	< 10 nM	–
Cc1ccc(-n2nc(C(C)(C)C)cc2NC(=O)Nc2ccc(Oc3ccnc(NC(=O)N(C)CCN4CCOCC4)c3)c3ccccc23)cc1 [Example 46, N-Methyl-N-(2-(morpholin-4-yl)ethyl)-N′-4-(4-(3-(3-tert-butyl-1-p-tolyl-1H-pyrazol-5-yl)ureido)naphthalen-1-yloxy)pyridin-2-ylurea]	–	< 10 nM	< 10 nM	< 5000 nM	< 10 nM	− (<=30%)	− (<=30%)	< 5000 nM	–
Cc1ccc(-n2nc(C(C)(C)C)cc2NC(=O)Nc2ccc(Oc3ccnc(NC(=O)N(C)C)n3)c3ccccc23)cc1 [Example 68, 1,1-Dimethyl-3-(4-(4-(3-(3-tert-butyl-1-p-tolyl-1H-pyrazol-5-yl)ureido)naphthalen-1-yloxy)pyrimidin-2-yl)urea]	–	< 10 nM	–	–	–	–	–	–	DU937 (cell viability) MTT assay 4 h [1, 11]: − (<=30%); DU937 (cell viability) MTT assay 4 h [1, 12]: − (<=30%); IC50 (p38 MAPK alpha (MAPK14); Table 1): < 10 nM; IC50 (BEAS2B cells; Table 1): < 10 nM; IC50 (THP-1 cells; [13]): < 5000 nM; IC50 (U937 cells [3]; Table 1): < 10 nM
Cc1ccc(-n2nc(C(C)(C)C)cc2NC(=O)Nc2ccc(Oc3ccnc(NC(=O)CNC(=O)C4CCOCC4)c3)c3ccccc23)cc1 [Example 16, N-(2-(4-(4-(3-(3-tert-Butyl-1-p-tolyl-1H-pyrazol-5-yl)ureido)naphthalen-1-yloxy)pyridin-2-ylamino)-2-oxoethyl)tetrahydro-2H-pyran-4-carboxamide]	< 10 nM	< 10 nM	–	–	–	–	–	–	DU937 (cell viability) MTT assay 4 h [1, 4]: − (<=30%); DU937 (cell viability) MTT assay 24 h [1, 4]: + (>30%); IC50 (BEAS2B cells; Table 2): < 10 nM; IC50 (THP-1 cells; [6]): < 10 nM; IC50 (U937 cells [3]; Table 2): < 10 nM
COCCNC(=O)Nc1cc(Oc2ccc(NC(=O)Nc3cc(C(C)(C)C)nn3-c3ccc(C)cc3)c3ccccc23)ccn1 [Example 34, 1-(3-(tert-Butyl)-1-(p-tolyl)-1H-pyrazol-5-yl)-3-(4-((2-(3-(2-methoxyethyl)ureido)pyridin-4-yl)oxy)naphthalen-1-yl)urea]	–	< 5000 nM	< 5000 nM	< 10 nM	< 5000 nM	–	–	< 5000 nM	DU937 (cell viability) MTT assay 4 h ([1]; Table 3, first MTT column, loss of cell viability, test conducted at 10 μg/ml): −^ ^$ (<=30%); DU937 (cell viability) MTT assay 4 h ([1]; Table 3, second MTT column, loss of cell viability, test conducted at 10 μg/ml): +^$ (>30%)

The next lines start with results.

IC50 (p38 MAPK alpha (MAPK14); Table 2)	EC50 (U937 cells [2]; [5])	IC50 (p38 MAPK alpha (MAPK14); Table 3)	IC50 (THP-1 cells; [10])	IC50 (U937 cells [3]; Table 3)	SMILES	DU937 (cell viability) MTT assay 4 h [1, 8]	DU937 (cell viability) MTT assay 4 h [1, 9]	IC50 (BEAS2B cells; Table 3)	also measured
< 10 nM	< 10 nM	–	–	–	COCC(=O)NCC(=O)Nc1cc(Oc2ccc(NC(=O)Nc3cc(C(C)(C)C)nn3-c3ccc(C)cc3)c3ccccc23)ccn1 [Example 15, N-(4-(4-(3-(3-tert-Butyl-1-p-tolyl-1H-pyrazol-5-yl)ureido)naphthalen-1-yloxy)pyridin-2-yl)-2-(2-methoxyacetamido)acetamide]	–	–	–	DU937 (cell viability) MTT assay 4 h [1, 4]: − (<=30%); DU937 (cell viability) MTT assay 24 h [1, 4]: + (>30%); IC50 (BEAS2B cells; Table 2): < 10 nM; IC50 (THP-1 cells; [6]): < 10 nM; IC50 (U937 cells [3]; Table 2): < 10 nM
< 10 nM	< 10 nM	–	–	–	COCCNCC(=O)Nc1cc(Oc2ccc(NC(=O)Nc3cc(C(C)(C)C)nn3-c3ccc(C)cc3)c3ccccc23)ccn1 [Example 13, N-(4-(4-(3-(3-tert-Butyl-1-p-tolyl-1H-pyrazol-5-yl)ureido)naphthalen-1-yloxy)pyridin-2-yl)-2-(2-methoxyethylamino)acetamide]	–	–	–	DU937 (cell viability) MTT assay 4 h [1, 7]: −^$ (<=30%); DU937 (cell viability) MTT assay 24 h [1, 7]: +^$ (>30%); IC50 (BEAS2B cells; Table 2): < 10 nM; IC50 (THP-1 cells; [6]): < 10 nM; IC50 (U937 cells [3]; Table 2): < 10 nM
–	< 10 nM	< 10 nM	< 10 nM	< 10 nM	Cc1ccc(-n2nc(C(C)(C)C)cc2NC(=O)Nc2ccc(Oc3ccnc(NC(=O)N4CCN(C)CC4)c3)c3ccccc23)cc1 [Example 43, N-(4-((4-(3-(3-(tert-Butyl)-1-(p-tolyl)-1H-pyrazol-5-yl)ureido)naphthalen-1-yl)oxy)pyridin-2-yl)-4-methylpiperazine-1-carboxamide]	− (<=30%)	− (<=30%)	< 10 nM	–
< 5000 nM	< 10 nM	–	–	–	Cc1ccc(-n2nc(C(C)(C)C)cc2NC(=O)Nc2ccc(Oc3ccnc(NC(=O)CO)c3)c3ccccc23)cc1 [Example 5, N-(4-(4-(3-(3-tert-Butyl-1-p-tolyl-1H-pyrazol-5-yl)ureido)naphthalen-1-yloxy)pyridin-2-yl)-2-hydroxyacetamide]	–	–	–	DU937 (cell viability) MTT assay 4 h [1, 7]: +^$ (>30%); DU937 (cell viability) MTT assay 24 h [1, 7]: +^$ (>30%); IC50 (BEAS2B cells; Table 2): < 10 nM; IC50 (THP-1 cells; [6]): < 10 nM; IC50 (U937 cells [3]; Table 2): < 10 nM
–	< 10 nM	< 5000 nM	< 10 nM	< 5000 nM	CNC(=O)Nc1cc(Oc2ccc(NC(=O)Nc3cc(C(C)(C)C)nn3-c3ccc(C)cc3)c3ccccc23)ccn1 [Example 36]	− (<=30%)	− (<=30%)	< 10 nM	–
–	< 10 nM	< 10 nM	< 10 nM	< 10 nM	Cc1ccc(-n2nc(C(C)(C)C)cc2NC(=O)Nc2ccc(Oc3ccnc(NC(=O)N4CCCCC4)c3)c3ccccc23)cc1 [Example 45, N-(4-((4-(3-(3-(tert-Butyl)-1-(p-tolyl)-1H-pyrazol-5-yl)ureido)naphthalen-1-yl)oxy)pyridin-2-yl)piperidine-1-carboxamide]	− (<=30%)	− (<=30%)	< 10 nM	–
–	< 10 nM	–	–	–	CNC(=O)Nc1nccc(Oc2ccc(NC(=O)Nc3cc(C(C)(C)C)nn3-c3ccc(C)cc3)c3ccccc23)n1 [Example 67, 1-Methyl-3-(4-(4-(3-(3-tert-butyl-1-p-tolyl-1H-pyrazol-5-yl)ureido)naphthalen-1-yloxy)pyrimidin-2-yl)urea]	–	–	–	DU937 (cell viability) MTT assay 4 h [1, 11]: − (<=30%); DU937 (cell viability) MTT assay 4 h [1, 12]: − (<=30%); IC50 (p38 MAPK alpha (MAPK14); Table 1): < 5000 nM; IC50 (BEAS2B cells; Table 1): < 5000 nM; IC50 (THP-1 cells; [13]): < 10 nM; IC50 (U937 cells [3]; Table 1): < 10 nM
–	< 10 nM	–	–	–	COCC(=O)Nc1nccc(Oc2ccc(NC(=O)Nc3cc(C(C)(C)C)nn3-c3ccc(C)cc3)c3ccccc23)n1 [Example 65, N-(4-(4-(3-(3-tert-Butyl-1-p-tolyl-1H-pyrazol-5-yl)ureido)naphthalen-1-yloxy)pyrimidin-2-yl)-2-methoxyacetamide]	–	–	–	DU937 (cell viability) MTT assay 4 h [1, 11]: − (<=30%); DU937 (cell viability) MTT assay 4 h [1, 12]: − (<=30%); IC50 (p38 MAPK alpha (MAPK14); Table 1): < 5000 nM; IC50 (BEAS2B cells; Table 1): < 5000 nM; IC50 (THP-1 cells; [13]): < 10 nM; IC50 (U937 cells [3]; Table 1): < 5000 nM
